Reference: patent publication US20250214973A1, “1,4,5-TRISUBSTITUTED-1,2,3-TRIAZOLES AND USES THEREOF” (UNIVERSITY OF PUERTO RICO, priority 2022, published 2025)

Experiments:
Type in all cases: cell-based
Panc-1 [1] = experiment: Wound healing assay; details: Homo sapiens, 24 hr, read-out: inhibition of Panc-1 cell migration
Method: Mircrographs were digitally acquired at 0, 12, and 24 hours and the area of the wound quantified relative to the distance at time 0. n=3.
Panc-1 cells plated at equal density were subjected to a scratch in the center and treated with 4c at 0, 150 nM, 250 nM, or 500 nM. Mircrographs were digitally acquired at 0, 12, and 24 hours and the area of the wound quantified relative to the distance at time 0. n=3.

Panc-1 [2] = experiment: Cell viability assay (MTT); details: Homo sapiens, 120 hours, 0-1000 nM
Method: […] Using CellTiter 96 Non-Radioactive Cell Proliferation Assay (Promega, Corp.) according to manufactures' instructions, formazan was used as an indicator of viable cells at an absorbance 570 nm in a Tecan Microplate Reader M100. Data was calculated as fold change from vehicle and fitted using the 4′parameter logic nonlinear regression model in GraphPad Prism software. (n=3 biologic replicates: with 3 technical replicates each).

MDA-MB-231 [3] = experiment: Initial screening, inhibition of migration (wound gap); details: Homo sapiens, at 10 μM, read-out: Inh. of migration
Method: In addition, the inhibition of migration of MDA-MB-231 was determined via the following procedure:
Prior to assays, cells were grown until 80-90% confluence was observed. We used a 75 cm^2 flask for 2.6×10^5 cells/mL in 10 mL and for a 25 cm^2 flask 1.44×10^5 cells/mL in 5 mL. The cells were washed with PBS to remove all traces of FBS. We added 2 mL for a 25 cm^2 flasks or 4 mL for a 75 cm^2 flasks trypsin, and incubated 5-10 min at 37° C. At the end of the incubation time, cells were re-suspended and counted with hemocytometer using 1:2 dilutions with Trypan blue. Subsequently, cell viability was calculated. In a 12 well tissue culture plate, we used the plastic pattern to draw a fine space with a fine marker on the bottom of the plate. Cells were seeded at 1.5-2.2×10^5 cells/mL in 1 mL and incubated for 24 h. Cells were then rinsed with PBS and incubated in starving media (0.5% FBS) overnight. All controls and drugs were tested in triplicate. The negative control for each drug was prepared according to the drug's DMSO concentration. […] The wound was made using a sterile pipette tip of 200 μL. Cells were then rinsed very gently with media without FBS and media with negative controls was added. After a 24 h incubation, the gap distance was evaluated using the software Lumera Infinity Analyze 6.4.0. Pictures were taken at 0, 8, 12 and 24 h using a 10× objective in an Inverted Laboratory Microscope Leica DM IL LED, and an Infinity1-3 3.1 Megapixel USB 2.0 camera CMOS. The percentage of migration was calculated using the following formula: […]

Rac1 = molecular target: T1, Rac1 (Homo sapiens, UniProt P63000); experiment: Rac activation assay (PAK-PBD pulldown); details: 250 nM, 24 hours, MDA-MB-231
T1 construct: endogenous in cells; host or cells: MDA-MB-231
Method: MDA-MB-231 breast cancer cells were treated for 24 hours with 0 or 250 nM 4c. Cells were lysed and equal amounts of proteins were subjected to pull-down assays using the p21-binding domain of PAK to isolate GTP bound Rac. Top panel, pulldown showing GTP bound Rac1; middle panel, total Rac1 in lysates; bottom panel, actin as a loading control.
MDA-MB-231 triple negative breast cancer cells were seeded at equal density and treated with vehicle or Compound 4c for 24 hrs at various concentrations. Rac-GTP was detected using Rac Activity Assay, as per manufacturer's instructions (Cell Signaling). Briefly, total cell lysates were quantified and added equally to Pak-PBD beads. After 1 hr of incubation, beads were washed and Rac1-GTP (in pellets) or total Rac1 (in cell lysates) was detected by western blot using Rac1 antibody. (n=3 biological replicates).

MDA-MB-435 = experiment: Initial screening, SRB assay GI50; details: Homo sapiens, 48 hrs, read-out: MDA-MB435 GI50
Method: (§1) For initial screening, the GIso of compounds 4a-4h in the cell lines MDA-MB-231, MDA-MB-435 and MCF-7 was determined via the SRB-assay for 48 hrs as follows:
(§2) A stock solution of compounds was prepared at 50 mM in 100% DMSO. For cells preparation, a flask of 75 cm^2 or 25 cm^2 were used for 2.6×10^5 cells/mL or 1.44×10^5 cells/mL, respectively, with an 80-90% of confluence. Cells were washed with PBS and trypsinized. The concentration of cells was determined using a 1:2 dilutions with Trypan Blue and a hemocytometer. After cell count, the concentration was adjusted to have a 7.0-10.0×10^4 cells/mL. Approximately 100 μL of cells suspension, compounds, control positive and control negative were added in triplicates to a 96 well plate. Positive control used was doxorubicin, and the negative control was DMSO 0.1%. All compounds (4a-h) at 50, 25, 12.5, 6.3, and 1.6 μM were incubated with cells at 37° C. for 48 hrs. For fixation, cold TCA 50% was used and incubated at 4° C. for 1 h. Wells were washed and dried prior to tincture with 100 μL of SRB 0.4%. To remove excess of SRB, acetic acid was used. For analysis, TRIS-BASE Solution (pH=10.5) was used and shaken prior to reading using an ELISA reader at 540 nm and the software SoftMax Pro 4.8. For each compound, 50% growth inhibition (GI50) was calculated from Sigmoidal dose-response curves (variable-slope) that were generated with data obtained from experiments carried out in triplicates (GI50 values were generated with GraphPad Prism V. 6.02, GraphPad Software, Inc.).

MCF-7 = experiment: Initial screening, SRB assay GI50; details: Homo sapiens, MCF7, 48 hrs
Method: as §1, §2

MDA-MB-231 [4] = experiment: Initial screening, SRB assay GI50; details: Homo sapiens, 48 hrs
Method: as §1, §2

[5] = system: A549 lung adenocarcinoma cells; experiment: EGF-induced membrane ruffles, F-actin staining; details: 24 h
Method: Cells were stimulated with EGF (200 ng/ml) for 5 min, and fixed and stained with Rhodamine Phalloidin for F-actin.
Cells were grown on glass coverslips and treated with vehicle or 4c for 24h. Lung cancer cells that were stimulated with epidermal growth factor (EGF) were serum starved prior to stimulation with 200 ng/ml EGF for 5 min. Following fixation in 4% formaldehyde, cells were stained for F-actin with Rhodamine phalloidin and visualized by fluorescence microscopy. 5 random fields were scored for the number of ruffles.

GI50 (Panc-1 [2]): 0.235 µM
reduction of Rac1 activation by GTP loading (Rac1): 85%
GI50 (MDA-MB-435): 1.6 µM
GI50 (MCF-7): 3.2 µM
GI50 (MDA-MB-231 [4]): 17.2 µM
SMILES: CCn1c2ccccc2c2cc(-n3nnc(C(O)c4cccc(OC)c4)c3-c3ccccc3)ccc21 (centres unmarked) [Compound 4c, (1-(9-ethyl-9H-carbazol-3-yl)-5-phenyl-1H-1,2,3-triazol-4-yl) (3-methoxyphenyl) methanol]
inhibition at […] (Panc-1 [1]; 250 nM): ~40%
inhibition at 0.5 µM (Panc-1 [1]; 500 nM): 75%
inhibition at 10 µM (MDA-MB-231 [3]): 50.8 ± 11.4%
reduction of membrane ruffles in response to EGF ([5]; 250 nM): 20%
reduction of membrane ruffles in response to EGF ([5]; 500 nM): ~38%
reduction of membrane ruffles in response to EGF ([5]; 1000 nM): 58%
